Read-outs that look alike come from different tables or passages of the source.
Columns and labels:
[1] = system: diet-induced obese (DIO) Sprague Dawley rats; experiment: Post-treatment serum levels after the 22-day treatment; assay type: in vivo, rat; details: serum, 2 h post final injection after 22 days; mean ± SEM; n = 6 (Oxytocin n = 4)
Protocol: Cardiac puncture was used to collect blood for analysis 2 h post final injection. Commercially available enzyme-linked immunosorbent assays (ELISA) were used for quantitative assessment of leptin (cat. # EZRL-83K; MilliporeSigma, Burlington, MA, USA), insulin (cat. # EZRMI-13K; MilliporeSigma, Burlington, MA, USA), and adiponectin (cat. # EZRAPD-62K MilliporeSigma, Burlington, MA, USA). Serum samples were diluted 1:500 for the adiponectin ELISA using the sample diluent provided with the kit. All ELISAs were completed following the manufacturers recommendations. Levels of glucose, cholesterol (total, HDL, and calculated LDL), triglycerides, ALT, and AST were determined in the serum on a Modular P chemistry analyzer (Roche Diagnostics, Risch-Rotkreuz, Switzerland) by the University of Washington Nutrition and Obesity Research Center’s Analytic Core (Seattle, WA, USA).

[2] = native OXT; cited from earlier work
Description: This OXT analog is a full agonist at OXT receptor, and it addressed some of the limitations of using OXT as a weight loss therapeutic.

[3] = rat, in vivo, sc; cited from earlier work
[4] = mouse, in vivo, sc; cited from earlier work

SMILES: CC[C@H](C)[C@@H]1NC(=O)[C@H](Cc2ccc(O)cc2)NC(=O)[C@@H](N)CSSC[C@@H](C(=O)N2CCC[C@H]2C(=O)N[C@@H](CC(C)C)C(=O)NCC(N)=O)NC(=O)[C@H](CC(N)=O)NC(=O)[C@H](CCC(N)=O)NC1=O [OXT, oxytocin]
- ALT [1]: 40 ± 5 U/L
- AST [1]: 128 ± 22 U/L
- half-life in vivo [2]: ~5 min
- CLplasma [3]: 17.1 mL/min/kg
- T1/2 [3]: 7.2 min
- Vd [3]: 0.085 L/kg
- Cmax [4]: 216 nM
- Free Cmax [4]: 191 nM
- T1/2 [4]: 30 min
- Tmax [4]: 15 min

From PMC9569447 (International Journal of Molecular Sciences, 2022)
